Data taken from ChEMBL document CHEMBL5726747, “Substituted pyrido[3,4-d]pyrimidines and pyrido[4,3-d]pyrimidines as p70S6K inhibitors” (2019).
pIC50: −log10 of the molar value.

Columns and labels:
[1] = biological target: Ribosomal protein S6 kinase beta-1 (Homo sapiens, UniProt P23443, T412E); assay: p70S6K Enzyme Assay: p70S6K inhibitor compounds were diluted and plated in 96 well plates. A reaction mixture including the following components were then added to the compound plate to initiate the enzyme reaction: p70S6K (3 nM, T412E mutant, Millipore) was mixed with 24 μM ATP in an assay buffer containing 100 mM Hepes (pH 7.5), 5 mM MgCl2, 1 mM DTT, 0.015% Brij and 1 μM of the substrate peptide FITC-AHA-[…]-OH (derived from the S6 ribosomal protein sequence, FITC=fluorescein isothiocyanate, AHA=6-aminohexanoic acid). The reaction was incubated for 90 min at 25° C., before the addition of 10 mM EDTA to stop the reaction. The proportion of substrate and product (phosphorylated) peptide was analyzed on a Caliper Life Sciences Lab Chip 3000, using a pressure of −1.4 psi, and upstream and downstream voltages of −3000 and −700, respectively. Product peaks were resolved before substrate peaks on the resulting chromatograms. To assess the inhibitory potential of the compounds, IC50 values were determined, as shown above.
Sequence of Ribosomal protein S6 kinase beta-1 (P23443 whole entry T412E): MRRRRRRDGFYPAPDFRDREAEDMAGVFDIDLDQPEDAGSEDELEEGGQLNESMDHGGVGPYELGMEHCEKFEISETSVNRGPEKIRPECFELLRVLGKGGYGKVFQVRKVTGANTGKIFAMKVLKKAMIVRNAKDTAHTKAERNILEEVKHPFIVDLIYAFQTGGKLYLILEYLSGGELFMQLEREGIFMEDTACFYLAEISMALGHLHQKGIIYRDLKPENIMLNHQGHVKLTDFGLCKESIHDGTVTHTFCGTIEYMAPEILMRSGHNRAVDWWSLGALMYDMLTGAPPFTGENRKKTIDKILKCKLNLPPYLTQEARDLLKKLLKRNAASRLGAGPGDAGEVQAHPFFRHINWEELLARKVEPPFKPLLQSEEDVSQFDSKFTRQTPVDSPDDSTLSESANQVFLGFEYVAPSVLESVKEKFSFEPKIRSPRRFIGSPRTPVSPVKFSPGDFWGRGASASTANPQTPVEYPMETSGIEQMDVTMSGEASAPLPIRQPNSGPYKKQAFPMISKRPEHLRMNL

[2] = biological target: RAC-alpha serine/threonine-protein kinase (Homo sapiens, UniProt P31749); assay: AKT/PKB Kinase Assay: In order to measure AKT inhibition in the Caliper Life Sciences LC3000, a TTP Mosquito liquid handling instrument was used to place 125 nl of the appropriate concentration of inhibitor in 100% DMSO (for a dose response curve calculation) into each well of a 384-well plate. To this reaction, the following components were added to a final volume of 12.5 μl: 0.1 ng/μl His-AKT (Full Length) (Invitrogen, Part # P2999, Lot #641228C); 160 μM ATP (Fluka, 02055); 1 mM DTT (Sigma, D0632); 1 mM MgCl2 (Sigma, M1028); 1 μM substrate peptide (sequence FITC-AHA-[…]-NH2), synthesized by Tufts Peptide Synthesis service; 100 mM HEPES pH 7.5 (Calbiochem, 391338); and 0.015% Brij-35 (Sigma, B4184).The reaction was incubated for 90 min at 25° C., and then stopped by the addition of 70 μl of Stop buffer (100 mM HEPES pH 7.5, 0.015% Brij-35, 10 mM EDTA (Sigma, E7889)). The plate was read on a Caliper LC 3000 in an Off-Chip mobility shift assay format, using the following parameters for a 12-sipper chip: screening pressure −2.3 psi, upstream voltage −500, and downstream voltage −3000. These conditions cause unphosphorylated substrate and phosphorylated product peptide to resolve as separate peaks allowing direct measurement of percentage of conversion of substrate to product. The percent conversion was plotted against concentration of inhibitor to produce a sigmoidal dose response curve, from which an IC50 was calculated.
Sequence of RAC-alpha serine/threonine-protein kinase (P31749 whole entry): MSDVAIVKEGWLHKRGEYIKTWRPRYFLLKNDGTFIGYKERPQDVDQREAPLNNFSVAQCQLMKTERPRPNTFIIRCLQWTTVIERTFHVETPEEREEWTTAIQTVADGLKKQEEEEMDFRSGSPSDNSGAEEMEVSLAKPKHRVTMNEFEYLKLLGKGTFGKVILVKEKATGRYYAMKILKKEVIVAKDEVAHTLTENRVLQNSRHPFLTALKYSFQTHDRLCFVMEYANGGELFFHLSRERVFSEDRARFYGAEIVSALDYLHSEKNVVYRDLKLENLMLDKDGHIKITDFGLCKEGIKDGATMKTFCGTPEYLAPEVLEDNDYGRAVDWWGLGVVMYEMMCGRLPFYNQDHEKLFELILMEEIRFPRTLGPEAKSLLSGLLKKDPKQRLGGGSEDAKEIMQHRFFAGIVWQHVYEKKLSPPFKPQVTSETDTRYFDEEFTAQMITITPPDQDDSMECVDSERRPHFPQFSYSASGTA

Compound | pIC50 [1] | pIC50 [2]
CNC[C@@H](Nc1ncnc2c(C(N)=O)ccnc12)c1ccc(F)c(Cl)c1 | > 7.60 | > 7.60
CCNC[C@@H](Nc1ncnc2c(C(N)=O)ccnc12)c1ccc(F)c(Cl)c1 | > 7.60 | –
N#Cc1ccc([C@@H](CN2CCC2)Nc2ncnc3c(C(N)=O)ccnc23)cc1Cl | > 7.60 | > 7.60

Next, values leading:

pIC50 [1] | pIC50 [2] | Compound
> 7.60 | > 7.60 | NC(=O)c1ccnc2c(N[C@H](CN3CCC3)c3ccc(F)c(C(F)F)c3)ncnc12
> 7.60 | – | CN(C)C[C@@H](Nc1ncnc2c(C(N)=O)ccnc12)c1ccc(Cl)c(F)c1
> 7.60 | > 7.60 | NC(=O)c1ccnc2c(N[C@H](CN3CCC3)c3ccc(F)c(C(F)(F)F)c3)ncnc12
> 7.60 | – | CCNC[C@@H](Nc1ncnc2c(C(N)=O)ccnc12)c1ccc(F)c(Br)c1
